From patent US7972800B2, “Screening method for binding property or signal transduction alterations” (Takeda Pharmaceutical Company Limited, priority 2003, dated 2011)

Assays:
Type in all cases: cell-based
[1] = system: CHO cells where the receptor was not expressed or GPCR other than GPR39 was expressed; conditions: FLIPR; control cells
mouse GPR39 = target: T1, mouse GPR39 (Mus musculus, UniProt Q5U431, T447P); conditions: FLIPR, Fluo-3AM (FIG. 14 through FIG. 18)
T1 construct: expressed in transfected cells; host or cells: CHO cells, vector pAKKO-111H
T1 sequence (Q5U431 1-456 T447P): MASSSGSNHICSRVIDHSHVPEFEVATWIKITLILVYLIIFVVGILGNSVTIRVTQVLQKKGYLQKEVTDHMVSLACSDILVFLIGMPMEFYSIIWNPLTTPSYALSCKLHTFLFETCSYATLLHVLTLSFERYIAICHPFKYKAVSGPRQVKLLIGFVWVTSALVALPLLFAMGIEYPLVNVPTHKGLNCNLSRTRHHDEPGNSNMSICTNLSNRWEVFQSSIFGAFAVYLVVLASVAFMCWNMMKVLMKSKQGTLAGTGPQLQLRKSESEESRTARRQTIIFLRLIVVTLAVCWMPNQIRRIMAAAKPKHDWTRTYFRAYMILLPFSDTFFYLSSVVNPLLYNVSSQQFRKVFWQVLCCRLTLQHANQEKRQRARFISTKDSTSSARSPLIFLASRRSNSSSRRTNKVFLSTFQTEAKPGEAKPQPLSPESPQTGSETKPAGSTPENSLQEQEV
Experimental: Using the CHO cell line where rat GPR39 was stably expressed, the agonist activity of metal ions was detected using FLIPR in terms of the intracellular calcium-increasing reaction as an indicator. The CHO cell line used, wherein rat GPR39 was stably expressed, was cultured in HAM's αMEM (Invitrogen Corp.) containing 10% calf fetal serum (Invitrogen Corp.). On the day before the assay was conducted, the human GPR39-expressing CHO cell line was cultured in a culture flask to reach a confluent state. After washing with PBS, the cells were scraped off using trypsin and centrifuged for recovery. The cells were then suspended in medium and the suspension was adjusted to 3×10^5 cells/ml. Then, the suspension was dispensed onto a black walled 96-well plate (Costar) in 100 μl each per well, followed by incubation overnight in a CO2 incubator.
On the day when the assay was conducted, various test samples were added to the cells and the changes of intracellular calcium levels in this case were determined by FLIPR (Molecular Device). In order to determine the changes in intracellular calcium levels on FLIPR, the cells were pre-treated by the following procedures. First, for the purpose of adding a fluorescent dye Fluo-3AM (DOJIN) to the cells or washing the cells immediately before the FLIPR assay, an assay buffer was prepared. A solution was prepared by adding 20 ml of 1M HEPES (pH 7.4) (DOJIN) to 1000 ml of HBSS (Invitrogen Corp.) (hereinafter HBSS/HEPES solution), to which solution was added 10 ml of a solution mixture obtained by dissolving 710 mg of Probenecid (Sigma) in 5 ml of 1N NaOH and further adding 5 ml of HBSS/HEPES solution thereto. The resulting solution was used as the assay buffer. Next, 50 μg of Fluo-3AM was dissolved in 21 μl of DMSO (DOJIN) and an equal volume of 20% Pluronic acid (Molecular Probes) was added to and mixed with the solution. The mixture was then added to 10.6 ml of the assay buffer supplemented with 105 μl of fetal calf serum to prepare a fluorescent dye solution. The medium for the CHO cells where human GPR39 was stably expressed was removed. Immediately thereafter, the fluorescent dye solution was dispensed in 100 μl each/well and the cells were incubated in a CO2 incubator for an hour so that the fluorescent dye was taken up into the cells. The cells after the incubation was washed with the assay buffer described above and set on FLIPR. A test sample to be added to the CHO cells where rat GPR39 was stably expressed was prepared using the assay buffer and set on FLIPR at the same time. Following the pre-treatment above, the changes in intracellular calcium levels after the addition of each test sample were determined by FLIPR.
Using the CHO cell line where mouse GPR39 was stably expressed, the agonist activity of metal ions was detected on FLIPR in accordance with the procedures described in EXAMPLE 5, in terms of the intracellular calcium-increasing reaction as an indicator.

human GPR39 = target: T2, human GPR39 (Homo sapiens, UniProt O43194); design: expressed in transfected cells; host or cells: CHO cells, vector pAKKO-111H; conditions: FLIPR, Fluo-3AM; metal salt added, 10-300 μM (FIGS. 1-4)
T2 sequence (O43194 1-453): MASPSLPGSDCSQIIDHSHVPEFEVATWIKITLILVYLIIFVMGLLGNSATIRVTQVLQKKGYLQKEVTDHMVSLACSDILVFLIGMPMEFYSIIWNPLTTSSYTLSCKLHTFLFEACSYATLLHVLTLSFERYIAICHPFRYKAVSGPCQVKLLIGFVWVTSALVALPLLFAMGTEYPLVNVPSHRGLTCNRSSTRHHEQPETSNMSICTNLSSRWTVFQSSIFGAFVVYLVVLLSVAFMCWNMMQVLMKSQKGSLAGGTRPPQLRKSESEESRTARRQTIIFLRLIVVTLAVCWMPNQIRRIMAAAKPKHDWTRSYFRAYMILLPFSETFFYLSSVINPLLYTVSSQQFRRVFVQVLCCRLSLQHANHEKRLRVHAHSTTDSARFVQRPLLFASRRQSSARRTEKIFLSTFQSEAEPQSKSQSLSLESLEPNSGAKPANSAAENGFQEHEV
Experimental: The human GPR39-GFP expression vector-transfected CHO cell line produced in EXAMPLE 1 (CHO/hGPR39-GFP) was diluted in 3×10^4 cells/100 μl. The dilution was dispensed onto a Black walled 96-well plate (Costar) in 100 μl each per well, followed by incubation overnight in a CO2 incubator. Changes in intracellular calcium levels were determined by the following method using FLIPR (Molecular Device). In 21 μl of DMSO (DOJIN), 50 μg of Fluo-3AM (DOJIN) was dissolved and an equal volume of 20% Pluronic acid (Molecular Probes) was added to the solution. After mixing them, the resulting mixture was added to 10.6 ml of assay buffer [prepared by adding 20 ml of 1M HEPES (pH 7.4) (DOJIN) to HBSS (Invitrogen Corp.) and further adding to the solution 10 ml of a solution mixture, which mixture was prepared by dissolving 710 mg of Probenecid (Sigma) in 5 ml of 1N NaOH and then adding thereto 5 ml of the HBSS/HEPES solution above] supplemented with 105 μl of fetal calf serum to prepare a fluorescent dye solution. The medium in the cell plate was removed. Immediately thereafter, the fluorescent dye solution was dispensed in 100 μl each/well and the cells were incubated in a CO2 incubator for an hour so that the fluorescent dye was taken up into the cells. The cells after the incubation were washed with the assay buffer described above and set on FLIPR. Compounds of metal elements to be added to the cells were diluted to the respective concentration with the assay buffer. The dilutions were dispensed onto plates for ligands and set on FLIPR. Following the pre-treatment above, changes in intracellular calcium levels after addition of metal elements were determined by FLIPR to study agonist activities.

Structure (SMILES)	intracellular calcium response in CHO cells without the receptor or with GPCR other than GPR39 [1]	intracellular calcium levels of CHO/mGPR39 (mouse GPR39)	intracellular calcium levels of CHO/hGPR39-GFP (human GPR39)
[Cl][Ni][Cl] [nickel chloride]	no such response was observed	dose-dependently increased	dose-dependently increased
[Cl][Cu][Cl] [copper chloride]	no such response was observed	dose-dependently increased	dose-dependently increased
